{
  "source": "ChEMBL document CHEMBL1201862",
  "about": "“PubChem BioAssay data set” (2004)",
  "key": {"Vero [1]": {"tested_on": "Vero", "experiment": "mammalian cell viability reduction – secondary assay, cytotoxicity control for West Nile virus antiviral project, dose response (AID 1650)", "format": "functional", "settings": "Chlorocebus sabaeus"}, "[2]": {"experiment": "Trypanosoma cruzi growth suppression in host cells – NIH3T3 host cells, beta-gal luminescence, confirmation (AID 2044);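 note: intracellular parasites grown in NIH/3T3 mouse fibroblasts as host cells; luminescent beta-galactosidase reporter signal from transgenic T. cruzi replicating inside host cells; inhibitors lower the luminescence signal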", "format": "functional, cell-based"}, "[3]": {"experiment": "viability of PTEN-deleted HCT116 cells – cell-based, HCT116 PTEN knockout, dose response (AID 1047);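 note: HCT116 colon tumor cells with PTEN knocked out; cells exposed to compound for 60 hours before readout; potency for loss of cell viability measured by luminescence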", "format": "functional"}, "[4]": {"experiment": "NIH3T3 cell viability loss – ATP luminescence, mouse fibroblasts, counter-screen, dose response (AID 2010);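 note: cells exposed to compound for about 90 hours before reading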", "format": "functional, cell-based"}, "[5]": {"experiment": "viability of HCT116 lacking mutant beta-catenin – cell-based, human colon tumor, dose response (AID 1045);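 note: HCT116 colon tumor cells with beta catenin knocked out; cells exposed to compound for 60 hours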", "format": "functional"}, "HEK293": {"tested_on": "HEK293", "experiment": "EBV LMP1 TES2 canonical NF-kB signalling blockers – cell-based, HEK293, luciferase, cherry-pick, dose response (AID 588343)", "format": "functional", "settings": "Homo sapiens"}, "INS1": {"tested_on": "INS1", "experiment": "INS-1E survival protection against cytokine death – cell-based, luminescence, retest, dose response (AID 449756);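 note: cell death triggered by IL-1 beta plus TNF-alpha plus IFN-gamma mixture; protective hits raise ATP signal compared with cytokine alone wells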", "format": "functional", "settings": "Rattus norvegicus"}, "Paired box protein Pax-8": {"target": "Paired box protein Pax-8 (Homo sapiens, UniProt Q06710)", "sequence (Q06710 whole entry)": "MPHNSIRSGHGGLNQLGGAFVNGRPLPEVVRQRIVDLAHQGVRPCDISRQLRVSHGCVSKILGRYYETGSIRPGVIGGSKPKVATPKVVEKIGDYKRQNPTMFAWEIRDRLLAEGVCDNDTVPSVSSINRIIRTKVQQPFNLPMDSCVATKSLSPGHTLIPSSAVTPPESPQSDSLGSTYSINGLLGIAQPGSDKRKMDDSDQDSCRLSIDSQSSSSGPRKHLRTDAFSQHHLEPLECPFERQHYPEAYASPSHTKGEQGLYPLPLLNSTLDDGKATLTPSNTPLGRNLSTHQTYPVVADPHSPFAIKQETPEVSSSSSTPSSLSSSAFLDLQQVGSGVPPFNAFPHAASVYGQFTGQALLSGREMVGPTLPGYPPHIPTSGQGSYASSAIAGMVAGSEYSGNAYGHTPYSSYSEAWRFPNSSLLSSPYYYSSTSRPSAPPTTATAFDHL", "experiment": "PAX8 transcriptional activity inhibition in RMG-I – RMG-I cells, luciferase, cherry-pick, dose response (AID 687027);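 note: luciferase reporter driven by Pax8 target thyroperoxidase promoter measured by SteadyGlo luminescence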", "format": "functional, cell-based"}, "[6]": {"experiment": "general cell-killing toxicity readout – plate reader, dry powder samples, cytotoxicity control for PAX8 inhibitor project, dose response (AID 743021)", "format": "functional, cell-based"}, "Ephrin type-A receptor 4": {"target": "Ephrin type-A receptor 4 (Mus musculus, UniProt Q03137)", "sequence (Q03137 whole entry)": "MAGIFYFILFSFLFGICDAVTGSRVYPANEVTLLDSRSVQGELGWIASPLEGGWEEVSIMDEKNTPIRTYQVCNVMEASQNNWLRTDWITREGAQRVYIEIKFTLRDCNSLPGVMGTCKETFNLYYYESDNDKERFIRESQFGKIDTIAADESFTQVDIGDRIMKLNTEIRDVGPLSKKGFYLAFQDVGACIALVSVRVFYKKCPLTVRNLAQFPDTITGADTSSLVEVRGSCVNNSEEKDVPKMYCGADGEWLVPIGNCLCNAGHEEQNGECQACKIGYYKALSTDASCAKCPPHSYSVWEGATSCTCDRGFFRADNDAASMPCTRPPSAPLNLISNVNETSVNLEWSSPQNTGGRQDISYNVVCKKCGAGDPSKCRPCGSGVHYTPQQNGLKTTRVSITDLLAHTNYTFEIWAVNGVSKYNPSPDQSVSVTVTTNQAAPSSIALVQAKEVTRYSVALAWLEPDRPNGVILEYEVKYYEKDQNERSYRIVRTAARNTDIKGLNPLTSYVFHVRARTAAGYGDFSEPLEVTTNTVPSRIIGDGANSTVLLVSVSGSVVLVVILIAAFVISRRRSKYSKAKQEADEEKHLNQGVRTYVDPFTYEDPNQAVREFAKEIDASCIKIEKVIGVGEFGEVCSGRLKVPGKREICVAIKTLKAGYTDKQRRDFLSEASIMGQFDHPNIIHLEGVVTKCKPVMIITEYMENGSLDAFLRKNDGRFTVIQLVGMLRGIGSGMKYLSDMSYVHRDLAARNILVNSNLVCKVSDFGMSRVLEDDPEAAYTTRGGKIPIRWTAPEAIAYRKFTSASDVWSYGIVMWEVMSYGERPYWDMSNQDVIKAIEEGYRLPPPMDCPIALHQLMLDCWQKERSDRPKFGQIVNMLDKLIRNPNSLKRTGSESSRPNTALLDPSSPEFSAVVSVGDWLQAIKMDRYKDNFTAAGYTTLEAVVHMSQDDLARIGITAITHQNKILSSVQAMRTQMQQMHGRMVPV", "experiment": "EphA4 ligand-binding antagonists – biochemical, colorimetric, mouse EphA4, primary screen (AID 689)", "format": "functional"}, "[7]": {"experiment": "Luminescent dose response cell-based high throughput screening assay for inhibitors of the Janus kinase 2 mutant JAK2V617F. [Related pubchem assays: 1446 (Primary screen.), 1521 (Confirmation assay.), 1486 (Counter screen.)]", "format": "functional"}, "BJ [8]": {"tested_on": "BJ", "experiment": "BJ-TERT fibroblast viability loss – cell-based, RAS-independent, luminescence, dose response (AID 1933)", "format": "functional", "settings": "Homo sapiens"}, "cells [9]": {"experiment": "cells", "format": "functional, cell-based"}, "BJ [10]": {"tested_on": "BJ", "experiment": "cells", "format": "functional, cell-based", "settings": "Homo sapiens"}, "cells [11]": {"experiment": "cells", "format": "functional, cell-based", "remark": "listed apart in the source"}, "BJ [12]": {"tested_on": "BJ", "experiment": "BJ-TERT-LT-ST fibroblast viability loss – cell-based, RAS-independent, luminescence, dose response (AID 1935);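 note: BJ fibroblasts immortalized with TERT plus LT and ST oncogenes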", "format": "functional", "settings": "Homo sapiens"}, "[13]": {"experiment": "DRD fibroblast viability loss – cell-based, non-viral oncogenic, luminescence, dose response (AID 1934)", "format": "functional", "settings": "Homo sapiens"}, "Hexokinase HKDC1": {"target": "T1, Hexokinase HKDC1 (Homo sapiens, UniProt Q2TB90)", "T1 sequence (Q2TB90 whole entry)": "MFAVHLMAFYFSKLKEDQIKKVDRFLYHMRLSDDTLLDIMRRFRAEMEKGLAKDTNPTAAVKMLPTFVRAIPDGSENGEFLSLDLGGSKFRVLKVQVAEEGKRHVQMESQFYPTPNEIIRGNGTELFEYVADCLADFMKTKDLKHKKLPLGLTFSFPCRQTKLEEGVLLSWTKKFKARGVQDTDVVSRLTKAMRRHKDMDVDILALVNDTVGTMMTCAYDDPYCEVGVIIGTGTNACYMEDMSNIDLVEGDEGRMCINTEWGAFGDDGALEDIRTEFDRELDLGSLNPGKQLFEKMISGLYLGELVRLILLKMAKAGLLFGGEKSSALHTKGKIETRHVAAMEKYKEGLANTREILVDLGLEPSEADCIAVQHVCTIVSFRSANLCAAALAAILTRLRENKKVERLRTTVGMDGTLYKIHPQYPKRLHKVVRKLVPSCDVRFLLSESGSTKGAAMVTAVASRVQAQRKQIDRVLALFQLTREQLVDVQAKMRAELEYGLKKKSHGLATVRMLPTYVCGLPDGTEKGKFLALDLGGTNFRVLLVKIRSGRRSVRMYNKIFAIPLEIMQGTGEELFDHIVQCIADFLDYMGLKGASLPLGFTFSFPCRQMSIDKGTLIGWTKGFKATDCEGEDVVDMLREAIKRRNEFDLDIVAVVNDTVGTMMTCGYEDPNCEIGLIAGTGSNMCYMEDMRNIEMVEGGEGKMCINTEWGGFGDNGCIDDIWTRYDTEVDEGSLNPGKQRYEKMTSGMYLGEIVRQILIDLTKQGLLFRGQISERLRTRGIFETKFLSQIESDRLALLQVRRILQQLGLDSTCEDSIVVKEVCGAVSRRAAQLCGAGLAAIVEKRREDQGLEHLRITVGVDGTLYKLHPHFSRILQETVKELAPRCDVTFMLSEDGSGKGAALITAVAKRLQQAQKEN", "experiment": "inhibition of HKDC1 glucose phosphorylation – biochemical, W721R variant, dose response (AID 504729)", "format": "functional"}, "Vero [14]": {"tested_on": "Vero", "experiment": "cells", "format": "functional", "settings": "Chlorocebus sabaeus"}, "[15]": {"experiment": "Fluorescence-based cell-based high throughput dose response assay for inhibitors of the interaction of nucleotide-binding oligomerization domain containing 2 (NOD2) and the receptor-interacting serine-threonine kinase 2 (RIPK2).", "format": "functional", "settings": "Homo sapiens"}},
  "note": "Calls of active or inactive are those of the source.",
  "data": [
    {"smiles": "CCN(CC)S(=O)(=O)c1cc([N+](=O)[O-])ccc1NNC(=O)Nc1ccc(Cl)c(Cl)c1", "values": [
      {"measurement": "CC50", "setting": "Vero [1]", "result": "14.3 µM (active)"},
      {"measurement": "EC50", "setting": "[2]", "result": "2.03 µM (active)"},
      {"measurement": "EC50", "setting": "[3]", "result": "8.3 µM (active)"},
      {"measurement": "EC50", "setting": "[4]", "result": "> 60 µM (not active)"},
      {"measurement": "EC50", "setting": "[5]", "result": "7.99 µM (active)"},
      {"measurement": "AC50", "setting": "HEK293", "result": "22.9 µM (active)"},
      {"measurement": "AC50", "setting": "INS1", "result": "6.79 µM (active)"},
      {"measurement": "AC50", "setting": "Paired box protein Pax-8", "result": "8.91 µM (active)"},
      {"measurement": "AC50", "setting": "[6]", "result": "3.73 µM (active)"}
    ]},
    {"smiles": "Cc1ccc(C2=N/C(=C\\c3cccs3)C(=O)N2Nc2ccccc2)cc1", "values": [
      {"measurement": "IC50", "setting": "Ephrin type-A receptor 4", "result": "2.91 µM (active)"}
    ]},
    {"smiles": "Cc1nc([N+](=O)[O-])c(Br)n1Cc1ccc(Cl)c(Cl)c1", "values": [
      {"measurement": "IC50", "setting": "[7]", "result": "0.542 µM (active)"},
      {"measurement": "EC50", "setting": "BJ [8]", "result": "9.74 µM (inconclusive)"},
      {"measurement": "EC50", "setting": "cells [9]", "result": "> 350 µM (not active)"},
      {"measurement": "EC50", "setting": "BJ [10]", "result": "> 150 µM (not active)"},
      {"measurement": "EC50", "setting": "cells [11]", "result": "> 350 µM (not active)"},
      {"measurement": "EC50", "setting": "BJ [12]", "result": "> 150 µM (inconclusive)"},
      {"measurement": "EC50", "setting": "[13]", "result": "9.66 µM (inconclusive)"},
      {"measurement": "IC50", "setting": "Hexokinase HKDC1", "result": "22.8 µM (inactive)"},
      {"measurement": "CC50", "setting": "Vero [14]", "result": "17.5 µM (active)"},
      {"measurement": "IC50", "setting": "[15]", "result": "4.39 µM (active)"}
    ]}
  ]
}
